Tests used:
Assay type in all cases: biochemical
[1] = molecular target: T1, PDK1 (Homo sapiens, UniProt O15530); assay: PDK1 kinase assay (33P peptide phosphorylation); settings: 0.01 mM ATP, 60 min at 30° C.; read-out: PDK-1 IC50
T1 sequence (O15530 1-556): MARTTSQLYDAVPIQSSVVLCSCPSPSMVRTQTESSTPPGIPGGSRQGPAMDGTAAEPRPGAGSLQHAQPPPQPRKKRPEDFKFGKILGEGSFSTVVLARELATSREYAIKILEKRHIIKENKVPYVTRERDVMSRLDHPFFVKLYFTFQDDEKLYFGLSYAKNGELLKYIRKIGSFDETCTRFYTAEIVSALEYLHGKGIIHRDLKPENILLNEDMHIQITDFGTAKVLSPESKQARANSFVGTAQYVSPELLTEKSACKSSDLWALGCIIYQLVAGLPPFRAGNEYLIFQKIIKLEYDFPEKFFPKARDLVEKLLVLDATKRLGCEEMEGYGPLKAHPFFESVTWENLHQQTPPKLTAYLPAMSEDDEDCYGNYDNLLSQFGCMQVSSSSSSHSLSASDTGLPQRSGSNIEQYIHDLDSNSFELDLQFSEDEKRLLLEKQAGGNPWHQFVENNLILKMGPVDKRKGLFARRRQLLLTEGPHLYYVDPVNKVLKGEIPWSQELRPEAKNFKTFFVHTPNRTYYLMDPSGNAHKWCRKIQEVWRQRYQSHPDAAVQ
Experimental: (§1) The assay mixture containing the inhibitor and PDK1 enzyme was mixed together in a microtiter plate in a final volume of 50 μl and incubated for 60 min at 30° C. The assay mixture contained 0.01 mM unlabeled ATP, 0.01 μCi/μl ^33P-γ-ATP, 0.075 mM peptide, 0.1 mg/ml BSA, 7.5 mM magnesium acetate, 0.05M Tris.HCl, pH 7.5, 0.5% 2-mercaptoethanol. The reaction was stopped by adding 50 μl of 50 mM phosphoric acid. 90 μl of the mixture were transferred to a pre-wetted 96-well Multiscreen MAPHNOB filtration plate (Millipore) and filtered on a vacuum manifold. The filter plate was washed with 3 successive additions of 200 μl 50 mM phosphoric acid and then with 100 μl methanol. The filtration plate was dried for 10 min at 65° C., scintillant added and phosphorylated peptide quantified in a scintillation counter (Trilux, PerkinElmer)

[2] = molecular target: T2, GST-Chk1 enzyme (Homo sapiens, UniProt O14757); assay: Chk1 kinase assay (33P Chktide phosphorylation); settings: 0.01 mM ATP, 40 minutes at 30° C.; read-out: CHK-1 IC50
T2 sequence (O14757 1-476): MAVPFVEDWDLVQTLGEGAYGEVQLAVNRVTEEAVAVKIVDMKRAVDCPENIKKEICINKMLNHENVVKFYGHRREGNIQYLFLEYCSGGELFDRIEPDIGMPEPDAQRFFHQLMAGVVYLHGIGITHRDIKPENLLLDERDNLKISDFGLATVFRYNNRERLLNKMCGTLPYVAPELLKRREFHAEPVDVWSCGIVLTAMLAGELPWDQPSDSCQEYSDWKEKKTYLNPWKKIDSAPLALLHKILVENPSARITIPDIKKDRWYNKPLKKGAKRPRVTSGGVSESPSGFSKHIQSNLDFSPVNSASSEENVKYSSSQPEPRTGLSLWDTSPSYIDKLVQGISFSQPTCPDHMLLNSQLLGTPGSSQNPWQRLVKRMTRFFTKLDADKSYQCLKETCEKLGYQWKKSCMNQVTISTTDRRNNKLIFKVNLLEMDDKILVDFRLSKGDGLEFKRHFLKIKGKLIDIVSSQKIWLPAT
Experimental: as §1, with “Chk1” for “PDK1”, “40 minutes” for “60 min”, “The assay mixture contained 0.01 mM unlabeled ATP, 0.01 μCi/μl ^33P-γ-ATP, 0.075 mM peptide, 0.1 mg/ml BSA, 7.5 mM magnesium acetate, 0.05M Tris.HCl, pH 7.5, 0.5% 2-mercaptoethanol.” left out, “was” for “were”, “multi-screen” for “Multiscreen”

[3] = molecular target: T3, Akt1 (Homo sapiens, UniProt P31749); assay: Akt1 kinase assay (Histone H1 substrate); settings: 200 μM ATP, read-out: AKT-1 IC50
T3 construct: purchased Upstate
Experimental: (§2) Assays for the cyclin dependent kinase activity were carried out by monitoring the phosphorylation of a synthetic peptide, HATTPKKKRK. The assay mixture containing the inhibitor and CDK-2 enzyme, complexed with cyclin A (0.4 U/ml) was mixed together in a microtiter plate in a final volume of 50 μl and incubated for 40 min at 30° C. The assay mixture contained 0.1 mM unlabeled ATP, 0.01 μCi/μl ^33P-γ-ATP, 0.03 mM peptide, 0.1 mg/ml BSA, 7.5 mM magnesium acetate, 50 mM HEPES-NaOH, pH 7.5. The reaction was stopped by adding 50 μl of 50 mM phosphoric acid. 90 μl of the mixture were transferred to a pre-wetted 96-well Multiscreen MAPHNOB filtration plate (Millipore) and filtered on a vacuum manifold. The filter plate was washed with 3 successive additions of 200 μl 50 mM phosphoric acid and then with 100 μl methanol. The filtration plate was dried for 10 min at 65° C., scintillant added and phosphorylated peptide quantified in a scintillation counter (Trilux, PerkinElmer)
Protocol for the Akt assay is the same for CDK2 except that, 3 nM Akt1 (Upstate) was used with Histone H1 as substrate with a final ATP concentration of 200 μM. The reaction was incubated at 30° C. for 40 minutes.

[4] = molecular target: T4, PKA (Homo sapiens, UniProt P17612); assay: PKA kinase assay (Kemptide substrate); settings: 100 μM ATP
T4 construct: purchased Upstate
Experimental: as §2, with “The” for “Assays for the cyclin dependent kinase activity were carried out by monitoring the phosphorylation of a synthetic peptide, HATTPKKKRK. The”
The PKA assay was incubated at 30° C. for 30 minutes.

[5] = molecular target: CDK-2 enzyme, complexed with cyclin A (Homo sapiens, UniProt P24941); assay: CDK2 kinase assay (33P peptide phosphorylation); settings: 0.1 mM ATP, cyclin A complex
Experimental: as §2, with “The” for “Assays for the cyclin dependent kinase activity were carried out by monitoring the phosphorylation of a synthetic peptide, HATTPKKKRK. The”

T3 sequence (P31749 whole entry, species assumed): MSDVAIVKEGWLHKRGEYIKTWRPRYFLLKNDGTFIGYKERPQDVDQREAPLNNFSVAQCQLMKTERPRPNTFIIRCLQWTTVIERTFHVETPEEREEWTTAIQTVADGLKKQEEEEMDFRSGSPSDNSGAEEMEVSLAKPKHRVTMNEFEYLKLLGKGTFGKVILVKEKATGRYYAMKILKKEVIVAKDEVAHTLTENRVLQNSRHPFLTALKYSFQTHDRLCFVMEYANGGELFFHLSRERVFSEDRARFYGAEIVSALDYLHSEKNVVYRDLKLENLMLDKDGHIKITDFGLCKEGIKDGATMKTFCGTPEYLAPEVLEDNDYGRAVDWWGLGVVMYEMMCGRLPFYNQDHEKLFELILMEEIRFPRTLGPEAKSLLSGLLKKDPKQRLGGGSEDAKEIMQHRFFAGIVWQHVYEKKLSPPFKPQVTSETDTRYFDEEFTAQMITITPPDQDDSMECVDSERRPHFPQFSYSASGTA

SMILES | IC50 [1] [µM] | IC50 [2] [µM] | IC50 [3] [µM] | IC50 [4] [µM] | IC50 [5] [µM]
Cc1[nH]nc(-c2nc3ccc(C(C)C)cc3[nH]2)c1C(=O)NC1CCN(C)CC1 [Example 46] | 0.036 | 0.014 | > 10 | 3.8 | 24.2
Cc1[nH]nc(-c2nc3ccc(C4CC4)cc3[nH]2)c1C(=O)NC1CN2CCC1CC2 (stereo not shown) [Example 47] | 0.106 | 0.085 | > 10 | 3.82 | > 50

From patent publication US20090131470A1, “PYRAZOLE-SUBSTITUTED BENZIMIDAZOLE DERIVATIVES FOR USE IN THE TREATMENT OF CANCER AND AUTOIMMUNE DISORDERS” (priority 2005, published 2009)
